In the oligonucleotide strings, read from the 5' end, every base follows the letter of its sugar. An asterisk marks phosphorothioate; unmarked linkages are phosphodiester. Other units and linkages are bracketed, terminal groups are in braces. A string of capitals states the bases alone. e = 2'-O-(2-methoxyethyl) (MOE); [5mC] = 5-methylcytosine
Experiments:
miR-10b [1] = assay: PD signature (mRNA of direct miR-10b target genes) in LN229 cells; type: cell-based, human
Method: To evaluate the on-target pharmacodynamic effects of treatment with anti-miR-10b, 18 genes that are direct targets of miR-10b were identified by next generation sequencing, and the expression of each of these genes following anti-miR-10b treatment was measured. The 18 genes were: ATXN2, ATXN7, BCL6, BDNF, CRLF3, DAZAP1, DVL3, FXR2, GATAD2A, GCLM, GTF2H1, INO80D, MIEF1, NCOA6, NFE2L1, PDE4A, SMAD2, and TET2.
LN229 cells were treated with a concentration of RG5579 ranging from 2 to 500 nM. After 24 hours, RNA was isolated and the mRNA levels of the 18 genes targeted were measured and averaged to provide a pharmacodynamic signature score (PD Signature Score), represented as Log 2 fold-change (Log 2FC) relative to mock-transfection.
Similar studies were conducted with RG5461 and RG5658, using a PD signature of 10 genes (non-overlapping with the 18-gene PD signature above).

LN229 cells [2] = assay: orthotopic LN229 glioblastoma model, RG5461 and RG5658 alone or with TMZ, survival; type: in vivo; details: single intratumoral dose Day 21 (20 ug RG5658, 50 ug RG5461), TMZ daily Days 35-41, nude mice
Method: RG5658 and RG5461 were tested in an orthotopic model of GBM established with LN229 cells. Treatments comprised anti-miR-10b compound alone or in combination with TMZ.
Further testing was performed to evaluate the effects of RG5658 and RG5461 treatment in combination with TMZ. Human gliomablastoma-derived LN229 cells growing in culture were trypsinzed, counted, and resuspended PBS. The cells express a fluorescent marker that enables monitoring of tumor growth and size during treatment. Approximately 5×10^5 cells, in a volume of 5 ul, were injected into the brain of nude mice on Day 0. Mice were randomized into the following treatment groups, with 8 mice per group: (1) PBS; (2) RG5461; (3) RG5658; (4) RG5461+TMZ; (5) RG5658+TMZ; and (6) PBS+TMZ. On Day 21, a single dose of anti-miR-10b compound was administered intratumorally at a dose of 20 ug for RG5658 or 50 ug for RG5461. TMZ was administered daily on each of Days 35-41. Survival was monitored, and overall median survival was determined.

MCF7 cells = assay: cell viability assay (CellTiter-Glo), MCF7 cells; type: cell-based; details: RNAiMAX transfection, 72 hours
Method: (§1) For the cell viability assay, approximately 8,000 cells were plated into each well of a 96-well plate. The following day, cells were transfected with anti-miR-10b compound at doses of 2, 4, 8, 16, 31, 63, 125, 250, and 500 nM, using RNAiMAX™ as the transfection reagent. After 72 hours, cell viability was determined using the CellTiter-Glo® Luminescent Cell Viability Assay. An IC50 was calculated for each compound. The assay was performed using both LN229, U87, MCF7, and HCN2 cells.

U87 cells = assay: cell viability assay (CellTiter-Glo), U87 cells; type: cell-based; details: RNAiMAX transfection, 72 hours
Method: as §1

[3] = test system: Human gliomablastoma-derived cells; assay: initial testing in subcutaneous and orthotopic glioma models, single intratumoral dose; type: in vivo, nude mice; details: single dose administered intratumorally
Method: Human gliomablastoma-derived cells growing in culture are trypsinzed, counted, and resuspended in a 1:1 mixture of media:growth factor reduced Matrigel. Approximately 10^6 cells, in a volume of 100 ul, are injected subcutaneously into the flank of nude mice. Ten days following subcutaneous tumor implantation, tumor size is measured using calipers, and mice are randomized into treatment groups. Intratumoral (e.g., 5 ug/30 mm^3 tumor), subcutaneous (e.g., 100 mg/kg) or intravenous (e.g., 80 mg/kg) dosing of anti-miR-10b compound begins post-implantation. Tumor size is measured three to five days per week. Final tumor size and weight are measured at the end of the study.
Human gliomablastoma-derived cells growing in culture are trypsinzed, counted, and resuspended PBS. The cells express a fluorescent marker and luciferase insertion that enables monitoring of tumor growth and size via an in vivo imaging system. Approximately 5×10^5 cells, in a volume of 5 ul, are injected into the brain of nude mice. Following intracranial tumor implantation, tumor burden is measured using the IVIS Spectrum In Vivo Imaging System (PerkinElmer), and mice are randomized into treatment groups. […] Tumor burden is measured weekly using the imaging system. Final tumor size and weight are measured at the end of the study.

LN229 cells [4] = assay: cell viability assay (CellTiter-Glo), LN229 cells; type: cell-based, human; details: RNAiMAX transfection, 72 hours
Method: as §1

LN229 cells [5] = assay: LN229 Orthotopic Model, summary of in vivo studies (Table 7); set-up: species or system nude mice; details: for survival benefit: Intratumoral anti-miR-10b alone, cell reads 'No survival benefit' over three lines
Method: Human gliomablastoma-derived cells growing in culture are trypsinzed, counted, and resuspended PBS. The cells express a fluorescent marker and luciferase insertion that enables monitoring of tumor growth and size via an in vivo imaging system. Approximately 5×10^5 cells, in a volume of 5 ul, are injected into the brain of nude mice. Following intracranial tumor implantation, tumor burden is measured using the IVIS Spectrum In Vivo Imaging System (PerkinElmer), and mice are randomized into treatment groups. Intratumoral (e.g., 0.1-500 ug/tumor), subcutaneous (e.g., 100 mg/kg) or intravenous (e.g., 80 mg/kg) dosing of anti-miR-10b compound begins post-implantation. Tumor burden is measured weekly using the imaging system. Final tumor size and weight are measured at the end of the study.
Three candidate therapeutic agents, RG5579, RG5461, and RG5658 were tested in the subcutaneous and orthotopic glioma models. […] The studies were designed to evaluate subcutaneous administration vs. intratumoral administration in subcutaneous in orthotopic models; efficacy of the anti-miR-10b compound alone and in combination with TMZ; and efficacy of a single injection of anti-miR-10b compound vs multiple injections. The research tool compound RG384124 was also tested.
The results of the in vivo studies are summarized in Table 7 and illustrate the substantial improvement of overall survival following treatment with both anti-miR-10b compound and TMZ. RG5461 and RG5658 improved overall median survival in combination with TMZ treatment.

miR-10b [6] = assay: luciferase reporter assay for miR-10b in stable Hela cell line; type: cell-based; details: Hela reporter cells transfected with miR-10b; for Luciferase (avg fold change) 1 nM: 1 nM anti-miR-10b compound; for Luciferase (avg fold change) 10 nM: 10 nM anti-miR-10b compound; for Luciferase (avg fold change) 100 nM: 100 nM anti-miR-10b compound
Method: In vitro potency was evaluated using a luciferase reporter assay. A luciferase reporter plasmid for miR-10b was designed, with a fully complementary miR-10b binding site in the 3′-UTR of the luciferase gene. A stable Hela cell line expressing this luciferase construct was generated. Cells were transfected to introduce miR-10b, which represses the expression of luciferase from the reporter construct. […] Cells were treated with anti-miR-10b compound at concentrations of 1 nM, 10 nM, and 100 nM. […] As shorter compounds, such as 9-mers, are typically not maximally active in the same assay conditions used for longer compounds, shorter compounds were selected based on maximum inhibition relative to appropriate control compounds. In this way, compounds that are diverse in both length and chemical composition were included in further testing.

HCN2 cells = assay: cell viability assay (CellTiter-Glo), HCN2 cells; type: cell-based; details: RNAiMAX transfection, 72 hours
Method: as §1

LN229 cells [7] = assay: orthotopic LN229 glioblastoma model, RG5579 alone or with TMZ, survival; type: in vivo; details: intratumoral 40 ug RG5579 Day 21, TMZ daily Days 35-41, nude mice
Method: RG5579 was tested in an orthotopic model of GBM established with LN229 cells.
Human gliomablastoma-derived LN229 cells growing in culture were trypsinized, counted, and resuspended PBS. The cells express a fluorescent marker that enables monitoring of tumor growth and size during treatment. Approximately 5×10^5 cells, in a volume of 5 ul, were injected into the brain of nude mice on Day 0. Mice were randomized into the following treatment groups, with 8 mice per group: (1) PBS; (2) RG5579; (3) PBS+TMZ; and (4) RG5579+TMZ. On Day 21, mice were given an intratumoral injection of either PBS or 40 ug of RG5579. On Days 35-41, TMZ was administered daily. Survival was monitored, and overall median survival was determined.

Row | Molecule | 10-gene PD signature (miR-10b [1]) | Median Survival (LN229 cells [2]) [days] | IC50 (MCF7 cells) [nM] | IC50 (U87 cells) [nM] | overall survival [3] | tumor growth [3] | IC50 (LN229 cells [4]) [nM] | median survival increase (LN229 cells [5]; Intratumoral anti-miR-10b + TMZ) [%] | survival benefit (LN229 cells [5]) | Luciferase (avg fold change) 1 nM (miR-10b [6]) [fold change] | Luciferase (avg fold change) 10 nM (miR-10b [6]) [fold change] | Luciferase (avg fold change) 100 nM (miR-10b [6]) [fold change] | IC50 (HCN2 cells) [nM] | % increase (relative to PBS) of median survival (LN229 cells [2]) [%] | Median Overall Survival % increase (relative to PBS) (LN229 cells [7]) [%] | Median Overall Survival Days (LN229 cells [7]) [days]
1 | UKAKCMAFGFGFGMUKAK (CAAATUCGGTTCTACAGGGTA; LNA/2'-F/2'-OMe modifications, chemistry not fully specified) [RG5658, anti-miR-10b modified oligonucleotide, 9 linked nucleosides] | dose-dependent de-repression of a 10-gene PD signature | 56 | 929 | 45.6 | did not significantly improve overall survival | consistently delayed tumor growth | 90.1 | 71 | No | 1.8 | 3.7 | 4.7 |  |  |  | 
2 | 5′-CACAAATTCGGTTCTACAGGGTA-3′ (antisense e[5mC]*eA*e[5mC]*eA*eA*eA*eT*eT*e[5mC]*eG*eG*eT*eT*e[5mC]*eT*eA*e[5mC]*eA*eG*eG*eG*eT*eA) [RG384124, research tool compound; each nucleoside 2′-O-methoxyethyl, each C 5-methylcytosine, each linkage phosphorothioate] |  |  | 80.5 | 31.3 |  |  | 43 |  | No | 2.8 | 29.5 | 55.6 | 44.4 |  |  | 
3 | Cn1nnc2c(C(N)=O)ncn2c1=O [TMZ, temozolomide] |  | 67.5 |  |  |  |  |  |  |  |  |  |  |  | 22 | 27 | 61.5
